Consider 1 compound from patent US20070219243A1, “Method for improving the pharmacokinetics of HIV integrase inhibitors” (priority 2005, published 2007).

This data set in a line: Example 7: food effect on pharmacokinetics of Compound 1 in healthy Japanese males. Type of data set: in vivo. The note with it: male, human, plasma, po, 400 mg, single oral dose 400 mg, Mean ± SD (n = 6); for half-life: read-out: t1/2 λz (converted). As for the experimental part: Subjects in the 400 mg fasted cohort received an additional 400 mg dose with breakfast after a washout period (generally a minimum of ten days after the initial administration). The interval of ten days between the two doses was considered appropriate for eliminating any within-subject carryover effects. […] Doses were administered at similar times for each subject in each treatment period. […] Plasma samples were isolated from healthy subjects administered with Compound 1. The plasma samples were extracted by solid phase extraction using Empore™ Disk Plate (C8SD), and then measured by high-performance liquid chromatography/tandem mass spectrometry (LC/MS/MS) (HPLC model 2795 separations module from Waters; mass spectrometer model AP14000 from MDS SCIEX). Ionization and detection were performed with electrospray ionization and positive ion detection with multiple reaction monitoring, respectively. […] To 50 μL of plasma samples spiked with […] each of 90% acetonitrile and 20 mmol/L ammonium formate-formic acid buffer (pH 3.0)/acetonitrile (10:90, v/v), 10 μL each of internal standard solution was added. To these samples, 200 μL of 0.1% formic acid in 10% acetonitrile was added. These solutions were then mixed for 10 seconds and centrifuged at 10,000 rpm for 5 minutes at 4° C. A 250 μL aliquot of the supernatant was added to a Empore™ Disk Plate (C8SD) (conditioned with 150 μL of acetonitrile and 200 μL of 0.1% formic acid in this order). The plate was washed twice with 200 μL of 0.1% formic acid in 20% acetonitrile and eluted twice with 100 μL of 0.1% formic acid in 80% acetonitrile (200 μL in total). To the eluates, 200 μL of 0.1% formic acid was added and mixed. Then, 10 μL of each solution was injected into the LC/MS/MS system and analyzed.

Read-outs that look alike come from different tables or passages of the source.

For the compound `COc1cc2c(cc1Cc1cccc(Cl)c1F)c(=O)c(C(=O)O)cn2[C@H](CO)C(C)C` [Compound 1, 6-(3-chloro-2-fluorobenzyl)-1-[(2S)-1-hydroxy-3-methylbutan-2-yl]-7-methoxy-4-oxo-1,4-dihydroquinoline-3-carboxylic acid], under “Fasted”, the AUC(0-inf) amounted to 1450 ± 308 ng·h/mL, the Cmax was 264 ± 78 ng/mL, the Tmax was 2.5 ± 1.2 h and the half-life was 5.4 ± 1 h. In addition, where the note is “Fed”, the AUC(0-inf) was 3940 ± 1070 ng·h/mL, the Cmax was 903 ± 391 ng/mL, the Tmax is 2.3 ± 1 h and the half-life is 3.2 ± 0.3 h.
